{
  "source": "patent US6998470B1",
  "about": "“Process for large-scale isolation and purification of hypothalamic inhibitory factor” (Bion, Inc., priority 1997, dated 2006)",
  "key": {"[1]": {"biological_target": "T1, monoclonal antibody 26-10 (Mus musculus, UniProt P01631)", "T1 construct": "fused on or other part: Heavy chain of mAb 26-10 (A/J mouse), which forms most of the digoxin/ouabain pocket", "T1 sequence (P01631 whole entry, the tested form may be a part)": "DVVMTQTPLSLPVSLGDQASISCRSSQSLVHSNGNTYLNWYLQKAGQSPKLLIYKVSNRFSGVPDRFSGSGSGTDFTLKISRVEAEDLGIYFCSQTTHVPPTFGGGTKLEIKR", "assay": "125I competition plate assay using goat-anti-mouse IgG Fab to bind the antibodies", "design": "species or system mice", "details": "read-out: relative affinity (IC50); binding to anti-digoxin mAb 26-10", "description": "(§1) Several available anti-digoxin antibodies were studied to determine relative affinity for ouabain.\nMonoclonal antidigoxin antibody 26-10 was obtained from A/J mice immunized with a digoxin-human serum albumin (Dig-HSA) conjugate and spleen cells were fused with the non-secreting murine myeloma Sp2/0 cell line (Mudgett-Hunter, M., et al. J. Immunol., 129:1165–1172 (1982)). Hybridoma cells identified by radioimmunoassay (RIA) as secreting anti-digoxin antibody were cloned and grown in tissue culture and amplified in the ascites form in mice. Digoxin specific hybridoma proteins were purified from ascites by a variety of chromatographic methods, including ion-exchange chromatography on DEAE cellulose and affinity chromatography on Digoxin-BSA-Sepharose or ouabain-amine Sepharose."}, "[2]": {"test_system": "Na+-K+-ATPase pump activity in human erythrocytes", "assay": "standard human erythrocyte 86Rb+ uptake assay", "format": "cell-based", "details": "RBC 86Rb+ uptake assay", "description": "As defined herein, purified HIF refers to HIF which is substantially free of or isolated from other tissue or fluid protein components and contaminants. In addition, the purified HIF of the present invention has at least 40% activity recovery. Preferably, the purified HIF has about 50–75% activity recovery, more preferably the purified HIF has about 75–90% activity recovery and most preferably, the purified HIF has about 90–95% activity recovery. As defined herein, “activity recovery” of HIF is the activity of HIF as measured indirectly by, for example a biological assay such as specific inhibition of Na^+-K^+-ATPase pump activity in human erythrocytes, or as measured directly, for example, by UV absorbance following HPLC chromatography.\nas §1"}, "purified Na, K-ATPase": {"biological_target": "purified Na, K-ATPase", "details": "Haupert et al. 1984; read-out: affinity constant for binding to purified Na, K-ATPase; cited from earlier work"}},
  "data": [
    {"compound": "C[C@@H]1O[C@@H](O[C@H]2C[C@@H](O)[C@]3(CO)[C@H]4[C@H](O)C[C@]5(C)[C@@H](C6=CC(=O)OC6)CC[C@]5(O)[C@@H]4CC[C@]3(O)C2)[C@H](O)[C@H](O)[C@H]1O", "note": "[ouabain]", "values": [
      {"measurement": "IC50", "setting": "[1]", "result": 300, "unit": "nM"},
      {"measurement": "amount equal to 1 U (1 U=50% inhibition under standard conditions)", "setting": "[2]", "result": "approximately 0.75 pmol"},
      {"measurement": "Kd", "setting": "purified Na, K-ATPase", "result": "~1", "unit": "nM"}
    ]}
  ]
}
